Test results: US20080089845A1, “METHODS FOR DETERMINING EFFECTIVE DOSES OF FATTY ACID AMIDE HYDROLASE INHIBITORS IN VIVO” (N.V. Organon, priority 2006, published 2008)

Experiments:
[1] = tested on: plasma OEA levels; assay: Time course of plasma OEA levels after oral administration to cynomolgus monkeys; format: in vivo
Protocol: Afterwards, a time course of plasma OEA levels was determined for each subject by obtaining a plasma sample at 0.5, 1, 2, 4, 8, 12, and 24 hours post-administration.

[2] = tested on: OEA and PEA levels in plasma; assay: 28-day toxicokinetic (TK) study in rodents, plasma OEA and PEA levels; format: in vivo, rat; details: rodent TK study, 50, 275 and 1500 mg/kg
Source text: We carried out toxicokinetic (TK) studies in rodents. […] AEA was included in this assay to examine whether basal or elevated levels of AEA could be detected.

[3] = molecular target: T1, FAAH (Mus musculus, UniProt O08914); assay: Escalating oral dose study in mice, brain FAAH activity; format: in vivo
T1 construct: brain FAAH Activity was also evaluated in an escalating oral dose study in mice; from tissue; host or cells: mouse brain
T1 sequence (O08914 1-579): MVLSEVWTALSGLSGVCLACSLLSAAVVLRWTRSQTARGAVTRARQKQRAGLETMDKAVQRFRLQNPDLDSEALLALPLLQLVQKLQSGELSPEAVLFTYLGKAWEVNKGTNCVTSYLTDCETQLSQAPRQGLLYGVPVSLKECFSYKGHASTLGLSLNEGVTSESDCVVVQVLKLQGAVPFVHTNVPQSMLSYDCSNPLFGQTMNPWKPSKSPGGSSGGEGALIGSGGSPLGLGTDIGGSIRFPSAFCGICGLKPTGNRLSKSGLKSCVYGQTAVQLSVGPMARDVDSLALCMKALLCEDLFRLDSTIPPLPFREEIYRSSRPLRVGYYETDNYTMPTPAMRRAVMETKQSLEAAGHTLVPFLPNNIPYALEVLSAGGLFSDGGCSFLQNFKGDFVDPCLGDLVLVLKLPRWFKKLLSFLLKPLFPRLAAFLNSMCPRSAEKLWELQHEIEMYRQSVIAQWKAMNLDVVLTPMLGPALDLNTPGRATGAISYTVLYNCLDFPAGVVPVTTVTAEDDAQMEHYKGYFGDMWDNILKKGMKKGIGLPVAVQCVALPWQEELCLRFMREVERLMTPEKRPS
Protocol: Finally, the correlation between increases in plasma OEA levels and brain FAAH Activity was also evaluated in an escalating oral dose study in mice. Inhibition of FAAH activity was maximal at 50 mg/kg p.o. and partial 10 mg/kg p.o. (FIG. 12). Increases in plasma OEA levels directly correlated with brain FAAH inhibition (FIG. 13).

[4] = tested on: OEA plasma levels; assay: Plasma/serum OEA and PEA levels by LC-MS/MS after oral administration in rats; format: in vivo; details: rat, 30 mg/kg p.o. vs 10 mg/kg p.o.
Protocol: At 0, 1, 2, 4, 8, 12, and 24 hours post-administration, animals were sacrificed to collect serum and brain tissue samples. For each time point, FAAH activity was determined in brain tissue homogenates by essentially the same method as that described in Fegley et al. (2005), J. Pharm. and Exp. Ther., 313:352-358. We observed complete FAAH inhibition at 10 mg/kg and partial FAAH inhibition at 1 mg/kg (FIG. 1).
Serum OEA and PEA levels were determined by LC-MS/MS. As shown in FIGS. 2 (A-B), plasma levels of both OEA and PEA were highly correlated with FAAH inhibition in the brain (R^2=0.9459 and 0.929, respectively). In addition, changes in OEA plasma levels correlated with changes in anandamide (AEA) levels in the brain (FIG. 3; R^2=0.9363), and changes in AEA brain levels correlated with brain FAAH inhibition (FIG. 4; R^2=0.9996). […] AUCs were determined as the sum of the area under the plasma concentration curve of the analyte measured (minus the endogenous level), or as a % FAAH inhibition versus time curve from time zero to the last time point collected by the trapezoidal rule.

With `NC(=O)c1cccc(-c2cccc(OC(=O)NC3CCCCC3)c2)c1` [KDS-4103] the “inhibition of FAAH activity in primates, concluded from plasma OEA” value ([1]; 50-1500 mg/kg) was “highly effective”, the “time of peak plasma OEA levels” value ([1]; each dose of 50-1500 mg/kg) was “four” and the “plasma OEA levels after the peak” value ([1]; each dose of 50-1500 mg/kg, up to 24 hours) was “remained elevated at all subsequent time points examined”. For the same molecule, the “FAAH inhibition inferred from OEA and PEA increases” value [2] was “complete across all doses”, the “Increases in OEA and PEA levels across the dose range” value [2] was “similar” and the “Inhibition of FAAH activity in brain” value ([3]; 10 mg/kg p.o.) was “partial”. The “Inhibition of FAAH activity in brain” value ([3]; 50 mg/kg p.o.) was “maximal” and the “plasma levels of OEA at 30 mg/kg compared with 10 mg/kg” value [4] was “did not increase plasma levels of OEA above those observed at 10 mg/kg”.
